For 23 compounds, IC50 results are on record in patent publication US8536198B2, “Piperidine derivatives as modulators of chemokine receptor activity” (Bristol-Myers Squibb Company, priority 2007, dated 2013).

CCR1, sequence (P32246 whole entry): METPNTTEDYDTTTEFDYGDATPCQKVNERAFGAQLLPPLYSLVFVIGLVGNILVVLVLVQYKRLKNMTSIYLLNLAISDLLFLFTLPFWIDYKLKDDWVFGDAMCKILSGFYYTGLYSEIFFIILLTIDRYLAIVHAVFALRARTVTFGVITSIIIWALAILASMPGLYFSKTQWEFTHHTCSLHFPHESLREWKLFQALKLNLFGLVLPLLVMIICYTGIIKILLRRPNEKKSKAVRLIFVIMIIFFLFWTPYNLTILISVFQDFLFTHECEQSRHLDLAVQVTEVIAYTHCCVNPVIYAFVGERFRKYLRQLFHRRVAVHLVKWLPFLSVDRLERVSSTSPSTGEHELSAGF

The target in the assay is CCR1 (Homo sapiens (Human), UniProt P32246). The experiment in a line: CCR1 Ligand Binding Scintillation Proximity Assay (SPA). Conditions: [125I]-MIP-1α competition binding on THP-1 monocytic leukemia cells, 12 h at room temperature. How it is done:
CCR1 Ligand Binding Scintillation Proximity Assay (SPA)
For radioligand competition studies, a final concentration of 1×10^5 THP-1 monocytic leukemia cells are combined with 100 μg of LS WGA PS beads (Amersham, Cat.#: RPNQ 0260) in 40 μl of assay buffer (RPMI 1640 without phenol red, 50 mM HEPES, 5 mM MgCl2, 1 mM CaCl2, 0.1% BSA). The THP-1 cell/bead mixture is added to each well of a 384-well assay plate (PerkinElmer, Cat. #:6007899) containing test compound in 3-fold serial dilution, with final concentrations ranging from 8 μM to […]. A final concentration of 0.1 nM [^125I]-MIP-1α (PerkinElmer, Cat. # NEX298) in 20 μl assay buffer is added to the reaction. Sealed assay plates are incubated at room temperature for 12 h then analyzed by LEADseeker™.
The competition data of the test compound over a range of concentrations is plotted as percentage inhibition of radioligand specific bound in the absence of test compound (percent of total signal). After correcting for non-specific binding, IC50 values are determined. The IC50 value is defined as the concentration of test compound needed to reduce [^125I]-MIP-1α specific binding by 50% and is calculated using the four parameter logistic equation to fit the normalized data. The Ki values are determined by application of the Cheng-Prusoff equation to the IC50 values, where Ki=IC50/(1+ ligand concentration/Kd) The Kd of [^125I]-MIP-1α in THP-1 cells is 0.1 nM. Each experiment is run in duplicate.
For orientation: IC50 means the concentration that gives 50% inhibition. Higher therefore signals weaker potency. `CC1(C)CN(C(=O)[C@H]2CCCC[C@H]2NC(=O)c2ccccc2)CC[C@]1(O)c1ccc(Cl)cc1` [Example 2, N-((1R,2S)-2-((S)-4-(4-Chlorophenyl)-4-hydroxy-3,3-dimethylpiperidine-1-carbonyl)cyclohexyl)benzamide] had an IC50 of 2.1 nM. On to `CC(C)(C)OC(=O)N[C@@H]1CCC[C@@H]1C(=O)N1CC[C@](O)(c2ccc(Cl)cc2)C(C)(C)C1` [Example 7, tert-Butyl (1R,2S)-2-((S)-4-(4-chlorophenyl)-4-hydroxy-3,3-dimethylpiperidine-1-carbonyl)cyclopentylcarbamate], for which the IC50 stood at 12.1 nM.

Compound `CC1(C)CN(C(=O)[C@H]2CCC[C@H]2NC(=O)Nc2ccccc2)CC[C@]1(O)c1ccc(Cl)cc1` [Example 9, 1-((1R,2S)-2-((S)-4-(4-Chlorophenyl)-4-hydroxy-3,3-dimethylpiperidine-1-carbonyl)cyclopentyl)-3-phenylurea] displayed an IC50 of 11.5 nM. The result for `CC1(C)CN(C(=O)[C@H]2CC3(CC[C@H]2NC(=O)c2ccccc2)OCCO3)CC[C@]1(O)c1ccc(Cl)cc1` [Example 10, N-((7S,8R)-7-((S)-4-(4-Chlorophenyl)-4-hydroxy-3,3-dimethylpiperidine-1-carbonyl)-1,4-dioxaspiro[4.5]decan-8-yl)benzamide] reads 1060 nM. The result for `CC1(C)CN(C(=O)[C@H]2CC(=O)CC[C@H]2NC(=O)c2ccccc2)CC[C@]1(O)c1ccc(Cl)cc1` [Example 11, N-((1R,2S)-2-((S)-4-(4-Chlorophenyl)-4-hydroxy-3,3-dimethylpiperidine-1-carbonyl)-4-oxocyclohexyl)benzamide] reads 17.2 nM.

In turn, `CC1(C)CN(C(=O)[C@H]2CCCC[C@H]2NC(=O)Nc2ccccc2)CC[C@]1(O)c1ccc(Cl)cc1` [Example 35] had an IC50 of 18.5 nM. As for `COC(=O)N[C@@H]1CCCC[C@@H]1C(=O)N1CC[C@](O)(c2ccc(Cl)cc2)C(C)(C)C1` [Example 41], the figure is 997 nM; as for `CC1(C)CN(C(=O)[C@H]2CCCC[C@H]2NC(=O)c2cncnc2)CC[C@]1(O)c1ccc(Cl)cc1` [Example 57], 18.7 nM; as for `CC1(C)CN(C(=O)[C@H]2CCCC[C@H]2NC(=O)CCN2CCCCC2)CC[C@]1(O)c1ccc(Cl)cc1` [Example 58], 932 nM. As for `CC1(C)CN(C(=O)[C@H]2CCCC[C@H]2NC(=O)CCc2ccccc2)CC[C@]1(O)c1ccc(Cl)cc1` [Example 60], the IC50 was found to be 15.7 nM. `CC1(C)CN(C(=O)[C@H]2CCCC[C@H]2NC(=O)CO)CC[C@]1(O)c1ccc(Cl)cc1` [Example 61] displayed an IC50 of 768 nM. Turning to `CC1(C)CN(C(=O)[C@H]2CCCC[C@H]2NC(=O)[C@H](O)c2ccccc2)CC[C@]1(O)c1ccc(Cl)cc1` [Example 67], the half-maximal inhibitory concentration (IC50) is 858 nM. The compound `CC1(C)CN(C(=O)[C@H]2CCCC[C@H]2NC(=O)[C@@H](O)c2ccccc2)CC[C@]1(O)c1ccc(Cl)cc1` [Example 68] returned an IC50 of 581 nM. As for `C[C@@H](O)CNC(=O)N[C@@H]1CCCC[C@@H]1C(=O)N1CC[C@](O)(c2ccc(Cl)cc2)C(C)(C)C1` [Example 76], the figure is 14.6 nM; as for `CC1(C)CN(C(=O)[C@H]2CCC[C@H]2NC(=O)c2cccc(S(N)(=O)=O)c2)CC[C@]1(O)c1ccc(Cl)cc1` [Example 80], 1 nM; as for `CC1(C)CN(C(=O)[C@H]2CCC[C@H]2NC(=O)[C@@H]2CC[C@H](O)C2)CC[C@]1(O)c1ccc(Cl)cc1` [Example 83], 14 nM. In turn, `CC1(C)CN(C(=O)[C@H]2CCC[C@H]2NC(=O)[C@H]2CC[C@@H](O)C2)CC[C@]1(O)c1ccc(Cl)cc1` [Example 84] yielded an IC50 of 1.5 nM. `CC1(C)CN(C(=O)[C@H]2CCC[C@H]2NC(=O)c2cccc(C(=O)O)c2)CC[C@]1(O)c1ccc(Cl)cc1` [Example 85] had an IC50 of 1.6 nM. In the case of `CC1(C)CN(C(=O)[C@H]2CCC[C@H]2NC(=O)C2CCCC2)CC[C@]1(O)c1ccc(Cl)cc1` [Example 86], the IC50 was determined as 1.3 nM. As for `CC1(C)CN(C(=O)[C@H]2CCC[C@H]2NC(=O)c2cccc(C(N)=O)c2)CC[C@]1(O)c1ccc(Cl)cc1` [Example 89], the figure is 1.8 nM. As for `CC1(C)CN(C(=O)[C@H]2CCCC[C@H]2NC(=O)c2cccc(C(=O)O)c2)CC[C@]1(O)c1ccc(C#N)cc1` [Example 100, 3-((1R,2S)-2-((S)-4-(4-Cyanophenyl)-4-hydroxy-3,3-dimethylpiperidine-1-carbonyl)cyclohexylcarbamoyl)benzoic acid], the figure is 11.3 nM; as for `CC1(C)CN(C(=O)[C@H]2CCCC[C@@]2(C)NC(=O)c2ccccc2)CC[C@]1(O)c1ccc(Cl)cc1` [Example 104], 818 nM. The compound `C[C@H](NC(=O)N[C@@H]1CCCC[C@@H]1C(=O)N1CC[C@](O)(c2ccc(Cl)cc2)C(C)(C)C1)C(C)(C)O` [Example 106] had an IC50 of 0.7 nM.
